# Measured values: PubChem BioAssay AID2060493 (Molecular Pharmacology Branch, DTP, NCI, 2025)
# Tested on: 616215-338-R-J1-PDC tumor spheroids, viability
# Test: Anticancer human tumor 616215-338-R-J1-PDC patient-derived colon adenocarcinoma cell line growth inhibition [GQUAD]
# Conditions: spheroids with HUVEC and MSC; for IC50: curve of first compound; for viability, T/C: stronger effect = lower value
# Source text: DNA G-quadruplex Stabilizer Agents in Combinations in Complex Spheroids
# A high-throughput screen of multi-cell type tumor spheroids was designed to identify active combinations of DNA G-quadruplex stabilizer agents and targeted small molecules. Complex spheroids include a stromal component modeled by human endothelial cells (HUVEC) and fibroblasts modeled by human mesenchymal stem cells (MSCs). The concentration ranges selected for each drug and investigational agent were based upon clinically achievable concentrations if the clinical Cmax of the agent was known.
# Compounds. The drugs and investigational agents: pidnarulex (CX-5461; NSC782164), APTO-253 (NSC789042), BRACO-19 (NSC847499), peposertib (NSC802822), ceralasertib (NSC780249), elimusertib (NSC800525), camonsertib (NSC841442), AZD-1390 (NSC803789), olaparib (NSC753686), talazoparib (NSC767125), ART-558 (NSC835418), sotorasib (NSC818433), MRTX-1133 (NSC836407), SN-38 (NSC673596), topotecan (NSC609699), etoposide (NSC141540), doxorubicin (NSC123127), gemcitabine (NSC613327), 5-fluorouracil (NSC19893), paclitaxel (NSC125973), vemurafenib (NSC761431), panobinostat (NSC761190), R-306465 (JNJ-16241199; NSC773264), adavosertib (NSC754352), TP-3654 (NSC805149), carboplatin (NSC241240), KSQ-4279 (NSC840948), and staurosporine (NSC755774) were obtained from the National Cancer Institute (NCI) Developmental Therapeutics Program Chemical Repository (34). The FDA-approved anticancer drug set is available from the NCI Developmental Therapeutics Program. […] The stock solutions were prepared in dimethyl sulfoxide (DMSO, Sigma-Aldrich, St. Louis, MO, cat. D2650) at 800-fold the tested concentration and stored at -70 degrees C prior to their use. All drugs and investigational agents were tested over a range starting from a high concentration at or near the clinical Cmax and decreasing in half-log increments. If the clinical Cmax for an agent had not been determined, the highest concentration tested was 10 microM.
# 2.3 Cell Culture. All cells were maintained in an incubator at 37 degrees C and 5% CO2 with 95% humidity. The PDC lines were cultured according to standard operating procedures established by the NCI PDMR. All PDCs were thawed and cultured in Matrigel-coated flasks prepared with a working solution of 1X Ham's F-12 nutrient mix, without supplementation (Invitrogen, cat. 11765054), 100 U/mL penicillin-streptomycin (Invitrogen, cat. 15140122), and 2.5% Matrigel (Corning Inc., cat. 354248) for the first three passages. The 857933-349-R-J2-PDC line was cultured in 6C/Colon 1B media, which includes advanced DMEM/F-12 (Thermo Fisher Scientific, cat. 12634028), 10 mM HEPES (Thermo Fisher Scientific, cat. 15630080), 1X GlutaMAX supplement (Thermo Fisher Scientific, cat. 35050061), 0.1 mg/mL primocin (InvivoGen, cat. ant-pm-2), 10% defined fetal bovine serum, heat inactivated (HyClone Laboratories Inc., cat. SH30070.03HI), 50% L-WRN conditioned media (ATCC, cat. CRL-3276), 1.25 mM N-Acetyl-L-cysteine (Sigma-Aldrich, cat. A9165), 10 mM nicotinamide (Sigma-Aldrich, cat. N0636), 1X B-27 supplement (Thermo Fisher Scientific, cat. 17504044), 1X N-2 supplement (Thermo Fisher Scientific, cat. 17502048), 10 microM Y-27632 dihydrochloride (Tocris Bioscience, cat. 1254), and 50 ng/mL human EGF recombinant protein (Thermo Fisher Scientific, cat. PHG0311). The 485176-168-R4-J1-PDC line was cultured in Panc media, which includes all 6C/Colon 1B media components plus 100 ng/mL human FGF-10 (Thermo Fisher Scientific, cat. 100-26), 500 nM SB-431542 (Selleckchem, cat. S1067), and gastrin (Tocris, cat. 3006).
# […]
# [1] = second compound 0.0316 µM, first compound 0.0316 µM
# [2] = second compound 0.0316 µM, first compound 0.1 µM
# [3] = second compound 0.0316 µM, first compound 0.316 µM
# [4] = second compound 0.0316 µM, first compound 1 µM
# [5] = second compound 0.0316 µM, first compound 3.16 µM
# [6] = second compound 0.0316 µM, first compound 10 µM
# [7] = second compound 0.1 µM, first compound 0.0316 µM
# [8] = second compound 0.1 µM, first compound 0.1 µM
# [9] = second compound 0.1 µM, first compound 0.316 µM
# [10] = second compound 0.1 µM, first compound 1 µM
# [11] = second compound 0.1 µM, first compound 3.16 µM
# [12] = second compound 0.1 µM, first compound 10 µM
# [13] = second compound 0.316 µM, first compound 0.0316 µM
# [14] = second compound 0.316 µM, first compound 0.1 µM
# [15] = second compound 0.316 µM, first compound 0.316 µM
# [16] = second compound 0.316 µM, first compound 1 µM
# [17] = second compound 0.316 µM, first compound 3.16 µM
# [18] = second compound 0.316 µM, first compound 10 µM
# [19] = second compound 1 µM, first compound 0.0316 µM
# [20] = second compound 1 µM, first compound 0.1 µM
# [21] = second compound 1 µM, first compound 0.316 µM
# [22] = second compound 1 µM, first compound 1 µM
# [23] = second compound 1 µM, first compound 3.16 µM
# [24] = second compound 1 µM, first compound 10 µM
# [25] = second compound 3.16 µM, first compound 0.0316 µM
# [26] = second compound 3.16 µM, first compound 0.1 µM
# [27] = second compound 3.16 µM, first compound 0.316 µM
# [28] = second compound 3.16 µM, first compound 1 µM
# [29] = second compound 3.16 µM, first compound 3.16 µM
# [30] = second compound 3.16 µM, first compound 10 µM
# [31] = second compound 10 µM, first compound 0.0316 µM
# [32] = second compound 10 µM, first compound 0.1 µM
# [33] = second compound 10 µM, first compound 0.316 µM
# [34] = second compound 10 µM, first compound 1 µM
# [35] = second compound 10 µM, first compound 3.16 µM
# [36] = second compound 10 µM, first compound 10 µM
# 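Note: spheroids exposed to agents for 7 days before readout.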
# 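Throughout, for viability, T/C: percent viability relative to DMSO vehicle control wells taken as 100%.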
compound,measurement,setting,value
C=CC(=O)N1CCN(c2nc(=O)n(-c3c(C)ccnc3C(C)C)c3nc(-c4c(O)cccc4F)c(F)cc23)C(C)C1 (stereo unspecified) + CN(C)c1ccc(Nc2c3ccc(NC(=O)CCN4CCCC4)cc3nc3cc(NC(=O)CCN4CCCC4)ccc23)cc1,IC50,second compound 0.0316 µM,> 10 µM
same,IC50,second compound 0.1 µM,> 10 µM
same,IC50,second compound 0.316 µM,> 10 µM
same,IC50,second compound 1 µM,> 10 µM
same,IC50,second compound 3.16 µM,> 10 µM
same,IC50,second compound 10 µM,> 10 µM
same,"viability, T/C",[1],96.3%
same,"viability, T/C",[2],104%
same,"viability, T/C",[3],103%
same,"viability, T/C",[4],102%
same,"viability, T/C",[5],94.2%
same,"viability, T/C",[6],72%
same,"viability, T/C",[7],110%
same,"viability, T/C",[8],89.6%
same,"viability, T/C",[9],100%
same,"viability, T/C",[10],98%
same,"viability, T/C",[11],95.4%
same,"viability, T/C",[12],64.8%
same,"viability, T/C",[13],93%
same,"viability, T/C",[14],107%
same,"viability, T/C",[15],94.9%
same,"viability, T/C",[16],103%
same,"viability, T/C",[17],89%
same,"viability, T/C",[18],70.6%
same,"viability, T/C",[19],98.7%
same,"viability, T/C",[20],100%
same,"viability, T/C",[21],102%
same,"viability, T/C",[22],91.9%
same,"viability, T/C",[23],91.6%
same,"viability, T/C",[24],69.1%
same,"viability, T/C",[25],102%
same,"viability, T/C",[26],86.7%
same,"viability, T/C",[27],94.9%
same,"viability, T/C",[28],95%
same,"viability, T/C",[29],80.2%
same,"viability, T/C",[30],63.9%
same,"viability, T/C",[31],98.1%
same,"viability, T/C",[32],85.7%
same,"viability, T/C",[33],86.3%
same,"viability, T/C",[34],86.8%
same,"viability, T/C",[35],70.3%
same,"viability, T/C",[36],55.2%
CC1COCCN1c1cc(C2(O)CC3CCC(C2)O3)c2cnn(-c3ccn[nH]3)c2n1 (stereo unspecified) + CN(C)c1ccc(Nc2c3ccc(NC(=O)CCN4CCCC4)cc3nc3cc(NC(=O)CCN4CCCC4)ccc23)cc1,IC50,second compound 0.0316 µM,0.184 µM
same,IC50,second compound 0.1 µM,0.213 µM
same,IC50,second compound 0.316 µM,0.196 µM
same,IC50,second compound 1 µM,0.201 µM
same,IC50,second compound 3.16 µM,0.225 µM
same,IC50,second compound 10 µM,0.139 µM
same,"viability, T/C",[1],98.6%
same,"viability, T/C",[2],63.5%
same,"viability, T/C",[3],38.5%
same,"viability, T/C",[4],24%
same,"viability, T/C",[5],15.5%
same,"viability, T/C",[6],18.4%
same,"viability, T/C",[7],102%
same,"viability, T/C",[8],72.7%
same,"viability, T/C",[9],34.7%
same,"viability, T/C",[10],30.3%
same,"viability, T/C",[11],20.8%
same,"viability, T/C",[12],15.2%
same,"viability, T/C",[13],94.3%
same,"viability, T/C",[14],64.7%
same,"viability, T/C",[15],36.4%
same,"viability, T/C",[16],31.9%
same,"viability, T/C",[17],17.3%
same,"viability, T/C",[18],15.3%
same,"viability, T/C",[19],95.4%
same,"viability, T/C",[20],72.5%
same,"viability, T/C",[21],34.3%
same,"viability, T/C",[22],24.1%
same,"viability, T/C",[23],24.4%
same,"viability, T/C",[24],11.7%
same,"viability, T/C",[25],99.5%
same,"viability, T/C",[26],67.2%
same,"viability, T/C",[27],41.3%
same,"viability, T/C",[28],28.4%
same,"viability, T/C",[29],25.2%
same,"viability, T/C",[30],13.2%
same,"viability, T/C",[31],84.7%
same,"viability, T/C",[32],55.2%
same,"viability, T/C",[33],35.2%
same,"viability, T/C",[34],27.1%
same,"viability, T/C",[35],24.2%
same,"viability, T/C",[36],13.4%
Cc1cccc(N(C)C(=O)C2C(O)CCN2c2nc(C)cc(C(F)(F)F)c2C#N)c1 (stereo unspecified) + CN(C)c1ccc(Nc2c3ccc(NC(=O)CCN4CCCC4)cc3nc3cc(NC(=O)CCN4CCCC4)ccc23)cc1,IC50,second compound 0.0316 µM,> 10 µM
same,IC50,second compound 0.1 µM,> 10 µM
same,IC50,second compound 0.316 µM,> 10 µM
same,IC50,second compound 1 µM,> 10 µM
same,IC50,second compound 3.16 µM,> 10 µM
same,IC50,second compound 10 µM,3.12 µM
same,"viability, T/C",[1],111%
same,"viability, T/C",[2],97.9%
same,"viability, T/C",[3],103%
same,"viability, T/C",[4],103%
same,"viability, T/C",[5],105%
same,"viability, T/C",[6],109%
same,"viability, T/C",[7],102%
same,"viability, T/C",[8],101%
same,"viability, T/C",[9],108%
same,"viability, T/C",[10],101%
same,"viability, T/C",[11],104%
same,"viability, T/C",[12],96.2%
same,"viability, T/C",[13],104%
same,"viability, T/C",[14],99.5%
same,"viability, T/C",[15],104%
same,"viability, T/C",[16],107%
same,"viability, T/C",[17],114%
same,"viability, T/C",[18],110%
same,"viability, T/C",[19],100%
same,"viability, T/C",[20],99.1%
same,"viability, T/C",[21],106%
same,"viability, T/C",[22],97.8%
same,"viability, T/C",[23],102%
same,"viability, T/C",[24],98.7%
same,"viability, T/C",[25],98.6%
same,"viability, T/C",[26],93.1%
same,"viability, T/C",[27],103%
same,"viability, T/C",[28],102%
same,"viability, T/C",[29],88.2%
same,"viability, T/C",[30],88.9%
same,"viability, T/C",[31],102%
same,"viability, T/C",[32],78.2%
same,"viability, T/C",[33],80.2%
same,"viability, T/C",[34],63.5%
same,"viability, T/C",[35],49%
same,"viability, T/C",[36],36.6%
